# Patent publication US20260200939A1, “MOLECULAR GLUE DEGRADER COMPOUNDS AND USES THEREOF” (Novartis AG, priority 2022, published 2026)
# Columns and labels:
# [1] = target: T1, pure RNF126 protein (Homo sapiens, UniProt Q9BV68); test: Mass spectrometry analysis of compound-labeled RNF126 tryptic digests; assay type: binding
# T1 construct: FLAG (C); host or cells: HEK293T
# [2] = target: T2, Recombinant RNF126 (Homo sapiens, UniProt Q9BV68); test: RNF126 Binding Assay, gel-based ABPP
# T2 construct: FLAG (C); host or cells: HEK293T
# Procedure, shortened: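 FLAG-tagged human RNF126, expressed in HEK293T and purified on anti-FLAG resin, was pretreated with DMSO or covalent ligand for 30 min at 37 °C in PBS. IA-rhodamine was then added for 1 h at RT in the dark. Probe labelling was read by SDS-PAGE in-gel fluorescence.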
# [3] = target: T3, cysteine 32 (C32) on the RING-family E3 ubiquitin ligase RNF126 (Homo sapiens, UniProt Q9BV68); test: isoTOP-ABPP chemoproteomic profiling in C33A cells; assay type: cell-based; details: C33A cells treated in situ
# T3 construct: endogenous in cells; host or cells: C33A
# Procedure: IsoTOP-ABPP studies were done as previously reported (Weerapana, E. et al. Nature 468, 790-795 (2010); Spradlin, J. N. et al. Nat. Chem. Biol. 15, 747-755 (2019); Grossman, E. A. et al. Cell Chem. Biol. 24, 1368-1376.e4 (2017)). All of the isoTOP-ABPP datasets were prepared as described below using the IA-alkyne probe. Cells were lysed by probe sonication in PBS and protein concentrations were measured by BCA assay. Cells were treated for 2 h with either DMSO vehicle or compound before cell collection and lysis. Proteomes were subsequently labeled with IA-alkyne labeling (200 μM) for 1 h at room temperature. CuAAC was used by sequential addition of tris(2-carboxyethyl)phosphine (1 mM, Strem, 15-7400), tris[(1-benzyl-1H-1,2,3-triazol-4-yl)methyl]amine (34 μM, Sigma, 678937), copper(II) sulfate (1 mM, Sigma, 451657) and biotin-linker-azide—the linker functionalized with a tobacco etch virus (TEV) protease recognition sequence as well as an isotopically light or heavy valine for treatment of control or treated proteome, respectively. After CuAAC, proteomes were precipitated by centrifugation at 6,500 g, washed in ice-cold methanol, combined in a 1:1 control:treated ratio, washed again, then denatured and resolubilized by heating in 1.2% SDS-PBS to 90° C. for 5 min. Insoluble components were precipitated by centrifugation at 6,500 g and soluble proteome was diluted in 5 ml 0.2% SDS-PBS. […]
# [4] = target: T4, CDK4 (Homo sapiens, UniProt P11802); test: RNF126 knockdown study of CDK4 degradation in C33A cells; assay type: cell-based
# T4 construct: endogenous in cells; host or cells: C33A
# Procedure: (§1) Proteins were resolved by SDS/PAGE and transferred to nitrocellulose membranes using the Trans-Blot Turbo transfer system (Bio-Rad). Membranes were blocked with 5% BSA in Tris-buffered saline containing Tween 20 (TBS-T) solution for 30 min at RT, washed in TBS-T, and probed with primary antibody diluted in recommended diluent per manufacturer overnight at 4° C. After 3 washes with TBS-T, the membranes were incubated in the dark with IR680- or IR800-conjugated secondary antibodies at 1:10,000 dilution in 5% BSA in TBS-T at RT for 1 h. After 3 additional washes with TBST, blots were visualized using an Odyssey Li-Cor fluorescent scanner. The membranes were stripped using ReBlot Plus Strong Antibody Stripping Solution (EMD Millipore) when additional primary antibody incubations were performed. Antibodies used in this study were CDK4 (Abcam ab108357), Vinculin (Abcam ab129002), GAPDH (Cell Signaling Technology 14C10), RNF126 (Santa Cruz Biotechnology sc-376005), BRD4 (Abcam ab128874), Beta Actin (Cell Signaling Technology 13E5), PDE5 (Abcam ab259945), AR-V7 (Abcam ab273500), c-Abl (Santa Cruz Biotechnology sc-23), SMARCA2 (Abcam ab240648), LRRK2 (Abcam ab133474), BTK (Cell Signaling Technology D3H5), Androgen Receptor (Abcam ab133273).
# Short-hairpin oligonucleotides were used to knock down the expression of RNF126 in C33A cells. […]
# [5] = target: T5, c-ABL kinase (Homo sapiens, UniProt P00519); test: c-ABL degradation, Western blotting; assay type: cell-based
# T5 construct: endogenous in cells; host or cells: K562 (inferred)
# Procedure: (§2) C33A cells were purchased from American Type Culture Collection (ATCC) and were cultured in Dulbecco's Modified Eagle Medium (DMEM) containing 10% (v/v) fetal bovine serum (FBS) and maintained at 37° C. with 5% CO2. 22RV1 cells were purchased from the ATCC and were cultured in RPMI-1640 Medium containing 10% (v/v) FBS and maintained at 37° C. with 5% CO2. HEK293T cells were obtained from the UC Berkeley Cell Culture Facility and were cultured in DMEM containing 10% (v/v) FBS and maintained at 37° C. with 5% CO2. K562 cells were obtained from the UC Berkeley Cell Culture Facility and were cultured in Iscove's Modified Dulbecco's Medium (IMDM) containing 10% (v/v) FBS and maintained at 37° C. with 5% CO2. MV-4-11 cells were obtained from the ATCC and were cultured in IMDM containing 10% (v/v) FBS and maintained at 37° C. with 5% CO2. A549 cells were obtained from the ATCC and were cultured in F-12K Medium containing 10% (v/v) FBS and maintained at 37° C. with 5% CO2. Mino cells were obtained from the ATCC and were cultured in RPMI-1640 Medium containing 10% (v/v) FBS and maintained at 37° C. with 5% CO2. […]
# (§3) Cells were washed twice with cold PBS, scraped, and pelleted by centrifugation (700 g, 5 min, 4° C.). […] Proteome concentrations were determined using BCA assay and lysate was diluted to appropriate working concentrations. […]
# [6] = target: T6, BCR-ABL (Homo sapiens, UniProt P00519); test: BCR-ABL degradation, Western blotting; assay type: cell-based
# T6 construct: BCR (N-terminal part of P11274, natural fusion partner); endogenous in cells; host or cells: K562 (inferred); the other entry of the earlier key: BCR (P11274, Breakpoint cluster region protein)
# Procedure: as §2, §3
# [7] = target: T7, PDE5 (Homo sapiens, UniProt O76074); test: PDE5 degradation in HEK293T cells, Western blotting; assay type: cell-based
# T7 construct: endogenous in cells; host or cells: HEK293T
# Procedure: as §2, §3
# [8] = target: T8, LRRK2 (Homo sapiens, UniProt Q5S007); test: LRRK2 loss in A549 lung cancer cells, Western blotting; assay type: cell-based
# T8 construct: endogenous in cells; host or cells: A549
# Procedure: as §2, §3
# [9] = system: Androgen Receptor; test: Androgen Receptor Degradation assay, Western blotting; assay type: cell-based; details: LNCaP and 22RV1 prostate cancer cells
# Procedure: C33A cells were purchased from American Type Culture Collection (ATCC) and were cultured in Dulbecco's Modified Eagle Medium (DMEM) containing 10% (v/v) fetal bovine serum (FBS) and maintained at 37° C. with 5% CO2. 22RV1 cells were purchased from the ATCC and were cultured in RPMI-1640 Medium containing 10% (v/v) FBS and maintained at 37° C. with 5% CO2. HEK293T cells were obtained from the UC Berkeley Cell Culture Facility and were cultured in DMEM containing 10% (v/v) FBS and maintained at 37° C. with 5% CO2. K562 cells were obtained from the UC Berkeley Cell Culture Facility and were cultured in Iscove's Modified Dulbecco's Medium (IMDM) containing 10% (v/v) FBS and maintained at 37° C. with 5% CO2. MV-4-11 cells were obtained from the ATCC and were cultured in IMDM containing 10% (v/v) FBS and maintained at 37° C. with 5% CO2. A549 cells were obtained from the ATCC and were cultured in F-12K Medium containing 10% (v/v) FBS and maintained at 37° C. with 5% CO2. Mino cells were obtained from the ATCC and were cultured in RPMI-1640 Medium containing 10% (v/v) FBS and maintained at 37° C. with 5% CO2. LNCaP cells were obtained from the ATCC and were cultured in RPMI-1640 Medium containing 10% (v/v) FBS and maintained at 37° C. with 5% CO2. Unless otherwise specified, all cell culture materials were purchased from Gibco. It is not known whether HEK293T cells are from male or female origin.
# Cells were washed twice with cold PBS, scraped, and pelleted by centrifugation (700 g, 5 min, 4° C.). Pellets were resuspended in PBS, sonicated, clarified by centrifugation (12,000 g, 10 min, 4° C.), and lysate was transferred to new low-adhesion microcentrifuge tubes. Proteome concentrations were determined using BCA assay and lysate was diluted to appropriate working concentrations.
# as §1
# [10] = target: T9, AR-V7 (Homo sapiens, UniProt P10275); test: AR-V7 degradation in prostate cancer cells, Western blotting; assay type: cell-based; details: LNCaP and 22RV1 prostate cancer cells
# T9 construct: endogenous in cells; host or cells: 22RV1 and/or LNCaP
# T9 sequence (P10275 1-644 isoform P10275-3): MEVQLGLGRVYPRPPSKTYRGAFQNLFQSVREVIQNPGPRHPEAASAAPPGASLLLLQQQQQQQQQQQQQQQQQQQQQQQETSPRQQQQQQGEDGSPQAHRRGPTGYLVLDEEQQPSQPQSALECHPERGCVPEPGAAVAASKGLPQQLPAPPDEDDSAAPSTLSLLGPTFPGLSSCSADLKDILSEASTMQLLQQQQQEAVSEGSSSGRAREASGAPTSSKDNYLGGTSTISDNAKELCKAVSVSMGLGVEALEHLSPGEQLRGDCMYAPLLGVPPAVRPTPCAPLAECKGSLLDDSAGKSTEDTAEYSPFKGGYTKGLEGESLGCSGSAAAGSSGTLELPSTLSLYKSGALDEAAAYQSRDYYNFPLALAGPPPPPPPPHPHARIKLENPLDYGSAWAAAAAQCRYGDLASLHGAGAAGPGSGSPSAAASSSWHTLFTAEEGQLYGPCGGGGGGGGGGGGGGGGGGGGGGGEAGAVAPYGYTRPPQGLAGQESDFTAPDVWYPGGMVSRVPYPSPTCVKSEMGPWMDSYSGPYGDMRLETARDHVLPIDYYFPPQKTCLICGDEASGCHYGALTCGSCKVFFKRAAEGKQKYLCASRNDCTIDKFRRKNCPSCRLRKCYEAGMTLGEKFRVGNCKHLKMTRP
# Procedure: as §2, §3
# T2 sequence (Q9BV68 whole entry): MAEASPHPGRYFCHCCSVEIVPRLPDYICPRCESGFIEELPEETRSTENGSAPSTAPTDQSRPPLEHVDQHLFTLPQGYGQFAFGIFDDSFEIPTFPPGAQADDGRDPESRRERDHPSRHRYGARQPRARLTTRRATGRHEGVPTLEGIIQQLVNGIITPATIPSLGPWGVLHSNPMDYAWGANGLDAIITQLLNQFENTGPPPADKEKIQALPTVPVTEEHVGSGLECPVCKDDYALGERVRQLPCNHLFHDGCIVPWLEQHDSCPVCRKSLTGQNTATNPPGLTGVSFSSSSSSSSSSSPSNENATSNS
# T5 sequence (P00519 whole entry): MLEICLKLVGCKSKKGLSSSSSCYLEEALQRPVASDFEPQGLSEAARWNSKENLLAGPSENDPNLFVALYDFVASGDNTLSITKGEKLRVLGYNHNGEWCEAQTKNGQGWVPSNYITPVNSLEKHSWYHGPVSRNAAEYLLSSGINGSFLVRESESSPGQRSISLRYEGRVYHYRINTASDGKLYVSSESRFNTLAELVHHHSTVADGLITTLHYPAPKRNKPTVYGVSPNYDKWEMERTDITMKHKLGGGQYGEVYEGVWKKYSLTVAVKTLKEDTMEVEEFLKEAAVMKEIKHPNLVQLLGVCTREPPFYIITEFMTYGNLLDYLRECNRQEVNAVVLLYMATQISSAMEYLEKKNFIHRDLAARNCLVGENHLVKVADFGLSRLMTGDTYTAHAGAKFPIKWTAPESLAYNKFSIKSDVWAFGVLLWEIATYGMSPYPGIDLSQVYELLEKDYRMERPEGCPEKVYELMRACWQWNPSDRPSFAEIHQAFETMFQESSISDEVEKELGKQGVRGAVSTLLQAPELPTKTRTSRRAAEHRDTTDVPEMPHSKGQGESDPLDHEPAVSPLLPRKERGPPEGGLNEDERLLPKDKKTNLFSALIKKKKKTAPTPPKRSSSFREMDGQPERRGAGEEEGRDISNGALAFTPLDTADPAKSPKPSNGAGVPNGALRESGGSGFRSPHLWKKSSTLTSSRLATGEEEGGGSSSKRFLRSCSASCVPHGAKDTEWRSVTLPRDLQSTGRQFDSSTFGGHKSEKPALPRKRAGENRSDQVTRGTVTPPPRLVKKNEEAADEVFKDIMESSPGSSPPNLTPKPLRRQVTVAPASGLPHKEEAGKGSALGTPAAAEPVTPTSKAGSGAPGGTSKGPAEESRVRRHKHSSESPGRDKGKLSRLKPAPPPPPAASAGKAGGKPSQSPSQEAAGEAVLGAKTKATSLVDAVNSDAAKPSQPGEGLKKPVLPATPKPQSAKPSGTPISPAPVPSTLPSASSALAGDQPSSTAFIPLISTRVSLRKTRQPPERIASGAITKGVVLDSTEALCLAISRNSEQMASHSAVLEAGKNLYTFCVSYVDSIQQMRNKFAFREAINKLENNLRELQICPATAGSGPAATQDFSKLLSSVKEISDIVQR
# T8 sequence (Q5S007 whole entry): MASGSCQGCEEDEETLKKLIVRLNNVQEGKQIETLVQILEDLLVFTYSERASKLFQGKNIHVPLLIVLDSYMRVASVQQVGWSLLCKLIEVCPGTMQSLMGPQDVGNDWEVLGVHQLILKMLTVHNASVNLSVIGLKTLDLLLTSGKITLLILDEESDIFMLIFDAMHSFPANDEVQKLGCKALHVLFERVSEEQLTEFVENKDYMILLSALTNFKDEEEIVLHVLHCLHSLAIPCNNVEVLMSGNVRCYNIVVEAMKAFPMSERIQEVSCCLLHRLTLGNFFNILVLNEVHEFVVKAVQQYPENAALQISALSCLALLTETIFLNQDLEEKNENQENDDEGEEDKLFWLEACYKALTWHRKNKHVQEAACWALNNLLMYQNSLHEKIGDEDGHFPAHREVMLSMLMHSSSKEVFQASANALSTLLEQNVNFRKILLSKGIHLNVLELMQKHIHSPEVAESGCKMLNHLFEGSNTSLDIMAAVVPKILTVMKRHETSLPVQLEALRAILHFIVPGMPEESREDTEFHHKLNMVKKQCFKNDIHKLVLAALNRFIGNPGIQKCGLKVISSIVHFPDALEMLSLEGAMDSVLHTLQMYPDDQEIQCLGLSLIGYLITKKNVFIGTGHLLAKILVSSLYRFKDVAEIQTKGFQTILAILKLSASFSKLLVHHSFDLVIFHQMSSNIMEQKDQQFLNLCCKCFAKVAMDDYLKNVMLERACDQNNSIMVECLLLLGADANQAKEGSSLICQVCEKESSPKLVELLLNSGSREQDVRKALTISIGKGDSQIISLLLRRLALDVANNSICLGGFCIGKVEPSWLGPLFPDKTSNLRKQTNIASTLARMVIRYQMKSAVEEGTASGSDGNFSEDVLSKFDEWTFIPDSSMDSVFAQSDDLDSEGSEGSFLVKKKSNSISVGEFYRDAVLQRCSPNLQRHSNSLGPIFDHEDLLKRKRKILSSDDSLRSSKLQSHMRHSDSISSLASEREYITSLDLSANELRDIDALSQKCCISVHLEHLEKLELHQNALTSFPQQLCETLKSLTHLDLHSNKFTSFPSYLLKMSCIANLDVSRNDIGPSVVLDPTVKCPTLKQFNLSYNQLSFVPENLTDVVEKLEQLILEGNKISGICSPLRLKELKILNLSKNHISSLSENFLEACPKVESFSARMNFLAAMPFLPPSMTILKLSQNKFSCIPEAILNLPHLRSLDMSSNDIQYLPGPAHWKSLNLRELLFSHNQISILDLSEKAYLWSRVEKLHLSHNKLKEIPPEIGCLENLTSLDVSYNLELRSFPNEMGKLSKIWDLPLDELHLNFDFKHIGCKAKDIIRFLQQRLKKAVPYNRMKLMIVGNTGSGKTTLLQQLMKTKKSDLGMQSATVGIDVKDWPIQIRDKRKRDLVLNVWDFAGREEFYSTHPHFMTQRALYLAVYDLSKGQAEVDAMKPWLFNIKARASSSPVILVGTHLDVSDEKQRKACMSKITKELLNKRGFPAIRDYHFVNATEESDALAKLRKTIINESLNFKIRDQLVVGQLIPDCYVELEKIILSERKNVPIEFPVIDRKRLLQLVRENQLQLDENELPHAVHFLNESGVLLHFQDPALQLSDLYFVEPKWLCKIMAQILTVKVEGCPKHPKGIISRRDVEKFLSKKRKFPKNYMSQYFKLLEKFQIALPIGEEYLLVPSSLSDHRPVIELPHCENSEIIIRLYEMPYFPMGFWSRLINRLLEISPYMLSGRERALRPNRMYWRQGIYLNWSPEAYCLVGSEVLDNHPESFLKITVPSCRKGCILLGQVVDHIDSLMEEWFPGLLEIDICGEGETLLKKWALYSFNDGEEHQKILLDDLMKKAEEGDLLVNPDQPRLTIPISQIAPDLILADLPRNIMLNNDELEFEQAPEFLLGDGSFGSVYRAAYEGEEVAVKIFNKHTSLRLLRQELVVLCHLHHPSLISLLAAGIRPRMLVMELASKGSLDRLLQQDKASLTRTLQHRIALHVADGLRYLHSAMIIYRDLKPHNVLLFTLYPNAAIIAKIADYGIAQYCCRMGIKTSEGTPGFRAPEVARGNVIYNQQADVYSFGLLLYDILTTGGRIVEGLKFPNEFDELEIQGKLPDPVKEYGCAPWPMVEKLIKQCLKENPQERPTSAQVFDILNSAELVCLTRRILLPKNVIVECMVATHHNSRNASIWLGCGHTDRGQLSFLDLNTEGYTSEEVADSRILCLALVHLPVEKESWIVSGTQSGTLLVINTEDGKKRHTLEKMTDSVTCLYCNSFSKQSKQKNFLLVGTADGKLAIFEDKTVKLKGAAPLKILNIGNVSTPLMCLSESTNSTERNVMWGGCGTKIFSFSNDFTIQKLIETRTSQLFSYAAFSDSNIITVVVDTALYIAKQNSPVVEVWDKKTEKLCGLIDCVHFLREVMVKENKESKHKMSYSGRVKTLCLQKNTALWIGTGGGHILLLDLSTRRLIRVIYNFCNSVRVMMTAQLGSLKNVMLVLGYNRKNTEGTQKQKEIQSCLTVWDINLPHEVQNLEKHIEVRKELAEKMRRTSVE
# T1 sequence (Q9BV68 whole entry): as the sequence (Q9BV68 whole entry) above
SMILES,"binding to RNF126 (gel-based ABPP), in words [2]","degradation of AR, in words [9]","degradation of AR-V7, in words [10]",also measured
CN(C)C(=O)c1cc2cnc(Nc3ccc(N4CCN(C(=O)/C=C/c5ccc(C(F)(F)F)cc5)CC4)cn3)nc2n1C1CCCC1 [Compound 106],confirms the interaction of Compound 106 with RNF126,,,adduct on RNF126 by mass spectrometry of tryptic digests [1]: mass adduct of Compound 106 on pure RNF126 protein is observed; cysteine engaged across the proteome (isoTOP-ABPP) [3]: covalently binds to cysteine 32 (C32); effect of RNF126 knockdown on compound-mediated CDK4 degradation [4]: completely attenuated
COc1ccc(C(=O)/C=C/C(=O)N2CCN(c3cc(Nc4ncc(C(=O)Nc5c(C)cccc5Cl)s4)nc(C)n3)CC2)cc1 [Compound 126],potent binding,,,"degradation of c-ABL kinase, in words [5]: degradation of both BCR-ABL and c-ABL kinase in a dose-responsive manner; degradation of BCR-ABL, in words [6]: degradation of both BCR-ABL and c-ABL kinase in a dose-responsive manner"
CCCc1nn(C)c2c(=O)[nH]c(-c3cc(S(=O)(=O)N4CCN(C(=O)/C=C/C(=O)c5ccc(OC)cc5)CC4)ccc3OCC)nc12 [Compound 127],potent binding,,,"degradation of PDE5, in words [7]: degradation of PDE5 in HEK293T cells in a dose-responsive and proteasome-dependent manner"
CNc1nc(Nc2ccc(C(=O)N3CCN(C(=O)/C=C/C(=O)c4ccc(OC)cc4)CC3)cc2OC)ncc1Cl [Compound 129],potent binding,,,"loss of LRRK2, in words [8]: loss of LRRK2 in A549 lung cancer cells in a dose-responsive manner"
COc1ccc(C(=O)/C=C/C(=O)N2CCN(C(=O)COc3ccc(-c4csc(N5CCOCC5)n4)cc3)CC2)cc1 [Compound 132],potent binding,degradation of AR and AR-V7,degradation of AR and AR-V7,
COc1ccc(C(=O)/C=C/C(=O)N2CCN(c3ccc(-c4csc(N5CCOCC5)n4)cc3)CC2)cc1 [Compound 133],potent binding,degradation of AR and AR-V7,degradation of AR and AR-V7,
